# Assay results taken from paper PMC8879803, “Identification of a Common Pharmacophore for Binding to MMP2 and RGD Integrin: Towards a Multitarget Approach to Inhibit Cancer Angiogenesis and Metastasis” (Molecules, 2022).
# Tests used:
# [1] = target: T1, purified human integrin proteins αvβ3 (Homo sapiens, UniProt P05106+P06756); assay: Solid-phase integrin binding assay (competition with biotinylated vitronectin); conditions: for inhibition at 0.1 µM / inhibition at 1 µM / inhibition at 10 µM: read-out: Inhibition % of biotinylated vitronectin specific binding to αvβ3
# T1 construct: purchased Sino Biological Europe GmbH, Eschborn, Germany
# Experimental: As regarding to the binding affinity towards αvβ3, the library was screened using an in vitro solid-phase assays were performed at 10, 1.0 and 0.1 μM concentration of the test compounds for their ability to compete with biotinylated vitronectin for binding to pure αvβ3 integrin isolated from human placenta, and % binding activity is reported in Table 2.
# Purified αvβ3 receptors (Sino Biological Europe GmbH, Eschborn, Germany) were diluted to 0.5 μg/mL in coating buffer containing Tris-HCl (20 mmol/L; pH 7.4), NaCl (150 mmol/L), MnCl2 (1 mmol/L), CaCl2 (2 mmol/L) and MgCl2 (1 mmol/L). An aliquot of diluted receptors (100 μL per well) was added to 96-well microtiter plates (MW 96F Medisorp Straight Nunc, Thermo Fischer Scientific, Waltham, MA, USA) and incubated, overnight, at 4 °C. The plates were then incubated with blocking solution (coating buffer plus 5% bovine serum albumin) for an additional 2 h at room temperature to block nonspecific binding followed by 3 h incubation at room temperature with various concentrations of test compounds in the presence of vitronectine (1 μg/mL, Sigma Aldrich, Merck KGaA, Darmstadt, Germany) biotinylated by using EZ-Link Sulfo-NHS-Biotinylation kit (Thermo Fisher, Waltham, MA, USA). After washing, the plates were incubated for 1 h at room temperature with streptavidin–biotinylated peroxidase complex (GE Healthcare, Chicago, IL, USA), followed by 30 min incubation with substrate reagent solution (100 μL; R&D Systems) before stopping the reaction by addition of H2SO4 (2 N, 50 μL). Absorbance at 415 nm was read with a BMG Labtech Fluostar Optima microplate reader. All the experiments were performed in triplicates and data collected were analyzed using the GraphPad 5.0 Software Package.
# MMP9 = MMP9 (Homo sapiens, UniProt P14780); assay: Fluorometric enzyme inhibition assay with fluorogenic substrate Mca-Lys-Pro-Leu-Gly-Leu-Dpa-Ala-Arg-NH2 (MMP9); assay type: biochemical; conditions: for inhibition at 10 µM: 10 μM compound; for inhibition at 10 µM / inhibition at 50 µM / IC50: enzyme 1 nM; for inhibition at 10 µM / inhibition at 50 µM: mean of three assays; for inhibition at 50 µM: 50 μM compound; for IC50: dose-response
# Experimental: (§1) For all the compounds showing >50% inhibition activity the IC50 values were obtained by dose-response measurements using an inhibitor range of concentrations (0.01 nM–20 μM) and enzyme concentration equal to 1 nM.
# (§2) The inhibition potency of hydroxamic acid derivatives against MMP2 and MMP9 was assayed through a fluorometric assay using the fluorogenic substrate Mca-Lys-Pro-Leu-Gly-Leu-Dpa-Ala-Arg-NH2 (Enzo life science). All the measurements were performed in 96-well plates with a Fluostar Optima microplate reader (BMG Labtech, Ortenberg, Germany). Excitation and emission wavelengths were 320 and 420 nm, respectively. All incubations were performed at 28 °C in 50 mM TrisHCl, 150 mM NaCl, 10 mM CaCl2, 0.05% Brij 35, 1% DMSO at pH 7.5. The inhibitors were pre-incubated with enzymes (1 nM) for 5 min at room temperature before the reaction was started by the addition of the fluorogenic substrate (3 µM). The […] of fluorescence was monitored over 30 min (λex = 320 nm, λem = 420 nm) at 28 °C. The percentages of inhibition for the test compounds were determined through the equation (1 − Vs/Vo) × 100, where vs. is the initial velocity in the presence of the inhibitor and V0 is the initial velocity of the uninhibited reaction. The IC50 values were obtained by dose-response measurements using inhibitor range of concentrations 0.00001–20 μM and enzyme concentration equal to 1 nM. A detergent-based assay was used to determine the presence of promiscuous inhibitors. All the experiments were performed in triplicates and data collected were analyzed using Graphpad 5.0 Software Package (GraphPad Prism Inc., San Diego, CA, USA).
# MMP2 = target: T2, MMP2 (Homo sapiens, UniProt P08253); assay: Fluorometric enzyme inhibition assay with fluorogenic substrate Mca-Lys-Pro-Leu-Gly-Leu-Dpa-Ala-Arg-NH2 (MMP2); assay type: biochemical; conditions: for inhibition at 10 µM: 10 μM compound; for inhibition at 10 µM / inhibition at 50 µM / IC50: enzyme 1 nM; for inhibition at 10 µM / inhibition at 50 µM: mean of three assays; for inhibition at 50 µM: 50 μM compound; for IC50: dose-response
# T2 sequence (P08253 110-660): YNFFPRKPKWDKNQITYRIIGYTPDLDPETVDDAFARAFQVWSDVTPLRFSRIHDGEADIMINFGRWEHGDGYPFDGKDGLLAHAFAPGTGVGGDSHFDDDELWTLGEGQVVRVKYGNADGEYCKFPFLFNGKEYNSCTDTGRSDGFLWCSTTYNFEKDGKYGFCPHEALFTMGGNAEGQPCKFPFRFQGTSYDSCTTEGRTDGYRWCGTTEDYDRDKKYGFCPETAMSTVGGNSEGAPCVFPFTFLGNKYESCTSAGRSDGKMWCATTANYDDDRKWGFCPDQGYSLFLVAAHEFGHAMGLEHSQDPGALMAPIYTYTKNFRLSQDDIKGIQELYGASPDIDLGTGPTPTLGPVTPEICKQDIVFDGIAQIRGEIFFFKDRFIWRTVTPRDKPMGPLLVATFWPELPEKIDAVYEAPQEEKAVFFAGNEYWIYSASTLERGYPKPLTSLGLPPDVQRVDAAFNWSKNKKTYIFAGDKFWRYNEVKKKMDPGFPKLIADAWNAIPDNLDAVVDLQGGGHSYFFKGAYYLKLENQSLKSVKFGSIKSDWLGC
# Experimental: as §1, §2
# M21 human melanoma cells = assay: Inhibition of integrin-mediated M21 cell adhesion to vitronectin; assay type: cell-based; conditions: 2 mM MnCl2, relative to vehicle (PBS); for inhibition at 0.3 µM / inhibition at 3 µM / inhibition at 30 µM: Homo sapiens, M21
# Experimental: All the compounds but 17 were also tested for their integrin binding affinity towards M21 human melanoma cells that expresses high levels of αvβ3 heterodimer and using cilengitide as a control. Tests were performed in the presence of 2 mM MnCl2 to switch integrins of tumour cells into an activated form, and at final concentration of the compounds ranging from 30 μM to 0.3 μM (Table 3). […] We were pleased to find that compound 19 maintained a good inhibition potency at 0.3 μM as the lowest concentration used, thus confirming the capacity of this compound to inhibit the binding of M21 melanoma cells to vitronectin as an RGD-containing substrate.
# The expression levels of αVβ3 integrin receptors on M21 melanoma cell lines were reported previously. Next, 96 wells plates were coated overnight, at 4 °C, with vitronectin (5 μg/mL in PBS) (V8379 Sigma). Plates were, then washed with phosphate buffered saline (PBS) solution and incubated at 37 °C for 1 h with PBS containing 1% bovine serum albumin (BSA). M21 cells were centrifugated (RT, at 700× g) in PBS, to remove serum. Cells were counted and suspended in serum-free medium at 5.0 × 10^5 cells/mL. Melanoma cell suspensions were pre-incubated with different amounts of the compounds. The final concentration ranged from 30 uM to 0.3 uM, using cilengitide as a control. The incubation was performed at 37 °C for 30 min to allow the ligand-receptor equilibrium to be reached. Next, cells were plated on VN substrata (5–6 × 10^4 cells/well) and incubated at 37 °C for 1 h. The assays were conducted in the presence of 2 mmol/L MnCl2 [26]. At the end of the incubation, plates were washed with PBS to remove the non-adherent cells, and 200 μL of 0.5% crystal violet solution in 20% methanol were added. After 2 h of static incubation at 4 °C, plates were examined at 540 nm in a counter ELX800 (Bio TEK Instruments, Winooski, VT, USA). Experiments were done in triplicate and repeated at least three times. The values are expressed as % inhibition of cell adhesion relative to cells exposed to vehicle alone (PBS).
Compound,inhibition at 0.1 µM [1] [%],inhibition at 1 µM [1] [%],inhibition at 10 µM [1] [%],inhibition at 10 µM (MMP9) [%],inhibition at 50 µM (MMP9) [%],inhibition at 10 µM (MMP2) [%],inhibition at 50 µM (MMP2) [%],"IC50 towards MMP2, in words (MMP2)",IC50 (MMP2) [nM],IC50 (MMP9) [nM],"IC50 ([1]; dose-response assay, read-out: IC50 (αvβ3), inhibition of biotinylated vitronectin binding) [nM]","IC50 towards MMP9, in words (MMP9; statement in text (gelatinases))",inhibition at 0.3 µM (M21 human melanoma cells; at 0.3 μM) [%],inhibition at 3 µM (M21 human melanoma cells; at 3 μM) [%],inhibition at 30 µM (M21 human melanoma cells; at 30 μM) [%],Inhibition % of M21 cell adhesion to vitronectin (M21 human melanoma cells; at 0.3 μM) [%],Inhibition % of M21 cell adhesion to vitronectin (M21 human melanoma cells; at 3 μM) [%],Inhibition % of M21 cell adhesion to vitronectin (M21 human melanoma cells; at 30 μM) [%]
"N=C(N)NCCCOc1ccc(C[C@H](NS(=O)(=O)c2ccccc2)C(=O)O)cc1 [Compound 9, (S)-3-(4-(3-Guanidinopropoxy)phenyl)-2-(phenylsulfonamido)propanoic Acid]",0,18,54,0,0,0,21,–,–,–,–,–,41.4,62.5,75.9,–,–,–
"NCCCOc1ccc(C[C@H](NS(=O)(=O)c2ccc([N+](=O)[O-])cc2)C(=O)O)cc1 [Compound 17, (S)-3-(4-(3-Aminopropoxy)phenyl)-2-(4-nitrophenylsulfonamido)propanoic Acid]",0,0,0,0,0,0,0,–,–,–,–,–,–,–,–,–,–,–
"N=C(N)NCCCOc1ccc(C[C@H](NS(=O)(=O)c2ccccc2)C(=O)NO)cc1 [Compound 18, (S)-3-(4-(3-Guanidinopropoxy)phenyl)-N-hydroxy-2-(phenylsulfonamido)propanamide]",0,0,27,42,63,52,75,–,760,1300,–,–,44.9,64.3,74.1,–,–,–
"O=C(NO)[C@H](Cc1ccc(O)cc1)NS(=O)(=O)c1ccc(-c2ccccc2)cc1 [Compound 21, (S)-2-([1,1′-Biphenyl]-4-ylsulfonamido)-N-hydroxy-3-(4-hydroxyphenyl)propanamide]",20,12,2,63,73,97,100,–,37,361,–,–,29.7,28.8,17.4,–,–,–
"c[RGDf(Me)V] [Cilengitide, reference compound]",–,–,–,–,–,–,–,–,–,–,–,–,–,–,–,80,76,62

# Further lines, with some results ahead:
inhibition at 0.1 µM [1] [%],inhibition at 1 µM [1] [%],inhibition at 10 µM [1] [%],inhibition at 10 µM (MMP9) [%],inhibition at 50 µM (MMP9) [%],inhibition at 10 µM (MMP2) [%],inhibition at 50 µM (MMP2) [%],"IC50 towards MMP2, in words (MMP2)",IC50 (MMP2) [nM],IC50 (MMP9) [nM],"IC50 ([1]; dose-response assay, read-out: IC50 (αvβ3), inhibition of biotinylated vitronectin binding) [nM]","IC50 towards MMP9, in words (MMP9; statement in text (gelatinases))",Compound,inhibition at 0.3 µM (M21 human melanoma cells; at 0.3 μM) [%],inhibition at 3 µM (M21 human melanoma cells; at 3 μM) [%],inhibition at 30 µM (M21 human melanoma cells; at 30 μM) [%],Inhibition % of M21 cell adhesion to vitronectin (M21 human melanoma cells; at 0.3 μM) [%],Inhibition % of M21 cell adhesion to vitronectin (M21 human melanoma cells; at 3 μM) [%],Inhibition % of M21 cell adhesion to vitronectin (M21 human melanoma cells; at 30 μM) [%]
8,1,5,0,0,16,41,–,–,–,–,–,"N=C(N)NCCCOc1ccc(C[C@H](NS(=O)(=O)c2ccc(-c3ccccc3)cc2)C(=O)O)cc1 [Compound 10, (S)-2-([1,1′-Biphenyl]-4-ylsulfonamido)-3-(4-(3-guanidinopropoxy)phenyl)propanoic Acid]",43.8,76.7,76.9,–,–,–
26,26,19,0,0,60,79,micromolar range,1200,–,–,–,"NCCCOc1ccc(C[C@H](NS(=O)(=O)c2ccc(-c3ccccc3)cc2)C(=O)O)cc1 [Compound 16, (S)-2-([1,1′-Biphenyl]-4-ylsulfonamido)-3-(4-(3-aminopropoxy)phenyl)propanoic Acid]",28,28.9,68.5,–,–,–
21,41,88,100,100,100,100,nanomolar range,55,38,370,nanomolar range,"NCCCOc1ccc(C[C@H](NS(=O)(=O)c2ccc(-c3ccccc3)cc2)C(=O)NO)cc1 [Compound 19, (S)-2-([1,1′-Biphenyl]-4-ylsulfonamido)-3-(4-(3-aminopropoxy)phenyl)-N-hydroxypropanamide]",57.8,35.8,65.7,–,–,–
